# From ChEMBL document CHEMBL3885881, “DrugMatrix”
# Species: Rattus norvegicus
# Experiment: DrugMatrix - Regimen: Daily Repeat
# Format: toxicity, organism-based, Sprague-Dawley
# Set-up: regimen Daily Repeat, gender Male, age 6-8 weeks
# Conditions: in vivo, po, route oral GAVAGE, vehicle .5 % CMC; for ABSOLUTE BASOPHIL / ABSOLUTE EOSINOPHIL / ABSOLUTE LYMPHOCYTE / ABSOLUTE MONOCYTE / ABSOLUTE SEGMENTED NEUTROPHIL / BASOPHIL / EOSINOPHIL / HEMATOCRIT / LEUKOCYTE COUNT / LYMPHOCYTE / MEAN CORPUSCULAR HEMOGLOBIN / MEAN CORPUSCULAR HEMOGLOBIN CONCENTRATION / MEAN CORPUSCULAR VOLUME / MONOCYTE / NEUTROPHIL / NUCLEATED RED BLOOD CELLS / PLATELET COUNT: tissue Blood; for ALANINE AMINOTRANSFERASE / ALBUMIN / ALKALINE PHOSPHATASE / ASPARTATE AMINOTRANSFERASE / BLOOD UREA NITROGEN / CARBON DIOXIDE / CHLORIDE / CHOLESTEROL / CREATININE / GLUCOSE / LACTATE DEHYDROGENASE / LIPASE / PHOSPHORUS / SODIUM / TOTAL BILIRUBIN / TOTAL PROTEIN / URIC ACID: tissue Plasma
# [1] = 23 mg/kg, 120 h, dose level High, time 5 day
# [2] = […], 72 h, dose 2.5 mg/Kg, dose level Low, time 3 day
# [3] = […], 120 h, dose 2.5 mg/Kg, dose level Low, time 5 day
smiles,measurement,setting,value
Cc1cc2c(s1)Nc1ccccc1N=C2N1CCN(C)CC1 [OLANZAPINE],ABSOLUTE BASOPHIL,[1],0 CELLS/uL
same,ABSOLUTE EOSINOPHIL,[1],52 CELLS/uL
same,ABSOLUTE LYMPHOCYTE,[1],13243.33 CELLS/uL
same,ABSOLUTE MONOCYTE,[1],98.33 CELLS/uL
same,ABSOLUTE SEGMENTED NEUTROPHIL,[1],1106.33 CELLS/uL
same,BASOPHIL,[1],0%
same,EOSINOPHIL,[1],0.33%
same,HEMATOCRIT,[1],38.23%
same,LEUKOCYTE COUNT,[1],14.5 x10E3/uL
same,LYMPHOCYTE,[1],91.33%
same,MEAN CORPUSCULAR HEMOGLOBIN,[1],24.67 pg
same,MEAN CORPUSCULAR HEMOGLOBIN CONCENTRATION,[1],39.5 G/DL
same,MEAN CORPUSCULAR VOLUME,[1],62.5 fL
same,MONOCYTE,[1],0.67%
same,NEUTROPHIL,[1],7.67%
same,NUCLEATED RED BLOOD CELLS,[1],0 /100WBC
same,PLATELET COUNT,[1],1008.67 x10E3/uL
same,ALANINE AMINOTRANSFERASE,[1],50 u/L
same,ALBUMIN,[1],4.4 G/DL
same,ALKALINE PHOSPHATASE,[1],282.67 u/L
same,ASPARTATE AMINOTRANSFERASE,[1],108.67 u/L
same,BLOOD UREA NITROGEN,[1],22.33 mg/dL
same,CARBON DIOXIDE,[1],27.33 mmol/L
same,CHLORIDE,[1],104.33 MEQ/L
same,CHOLESTEROL,[1],78.33 mg/dL
same,CREATININE,[1],0.26 mg/dL
same,GLUCOSE,[1],150.33 mg/dL
same,LACTATE DEHYDROGENASE,[1],306 u/L
same,LIPASE,[1],9.33 u/L
same,PHOSPHORUS,[1],11.63 mg/dL
same,SODIUM,[1],146.17 MEQ/L
same,TOTAL BILIRUBIN,[1],0.27 mg/dL
same,TOTAL PROTEIN,[1],6.1 G/DL
same,URIC ACID,[1],1.4 mg/dL
same,ABSOLUTE BASOPHIL,[2],0 CELLS/uL
same,ABSOLUTE EOSINOPHIL,[2],116 CELLS/uL
same,ABSOLUTE LYMPHOCYTE,[2],13788.67 CELLS/uL
same,ABSOLUTE MONOCYTE,[2],239.33 CELLS/uL
same,ABSOLUTE SEGMENTED NEUTROPHIL,[2],1189.33 CELLS/uL
same,BASOPHIL,[2],0%
same,EOSINOPHIL,[2],1%
same,HEMATOCRIT,[2],35.03%
same,LEUKOCYTE COUNT,[2],15.33 x10E3/uL
same,LYMPHOCYTE,[2],90%
same,MEAN CORPUSCULAR HEMOGLOBIN,[2],24.27 pg
same,MEAN CORPUSCULAR HEMOGLOBIN CONCENTRATION,[2],38.63 G/DL
same,MEAN CORPUSCULAR VOLUME,[2],62.87 fL
same,MONOCYTE,[2],1.67%
same,NEUTROPHIL,[2],7.33%
same,NUCLEATED RED BLOOD CELLS,[2],0 /100WBC
same,PLATELET COUNT,[2],1228.33 x10E3/uL
same,ALANINE AMINOTRANSFERASE,[2],53.33 u/L
same,ALBUMIN,[2],4.17 G/DL
same,ALKALINE PHOSPHATASE,[2],352.67 u/L
same,ASPARTATE AMINOTRANSFERASE,[2],94.33 u/L
same,BLOOD UREA NITROGEN,[2],18 mg/dL
same,CARBON DIOXIDE,[2],26.67 mmol/L
same,CHLORIDE,[2],101 MEQ/L
same,CHOLESTEROL,[2],73.67 mg/dL
same,CREATININE,[2],0.19 mg/dL
same,GLUCOSE,[2],159.67 mg/dL
same,LACTATE DEHYDROGENASE,[2],472.67 u/L
same,LIPASE,[2],10.33 u/L
same,PHOSPHORUS,[2],12.4 mg/dL
same,SODIUM,[2],143.67 MEQ/L
same,TOTAL BILIRUBIN,[2],0.23 mg/dL
same,TOTAL PROTEIN,[2],5.97 G/DL
same,URIC ACID,[2],1.73 mg/dL
same,ABSOLUTE BASOPHIL,[3],0 CELLS/uL
same,ABSOLUTE EOSINOPHIL,[3],0 CELLS/uL
same,ABSOLUTE LYMPHOCYTE,[3],12300.67 CELLS/uL
same,ABSOLUTE MONOCYTE,[3],35.33 CELLS/uL
same,ABSOLUTE SEGMENTED NEUTROPHIL,[3],2030.67 CELLS/uL
same,BASOPHIL,[3],0%
same,EOSINOPHIL,[3],0%
same,HEMATOCRIT,[3],34.77%
same,LEUKOCYTE COUNT,[3],14.37 x10E3/uL
same,LYMPHOCYTE,[3],84.67%
same,MEAN CORPUSCULAR HEMOGLOBIN,[3],25.5 pg
same,MEAN CORPUSCULAR HEMOGLOBIN CONCENTRATION,[3],40.57 G/DL
same,MEAN CORPUSCULAR VOLUME,[3],62.8 fL
same,MONOCYTE,[3],0.33%
same,NEUTROPHIL,[3],15%
same,NUCLEATED RED BLOOD CELLS,[3],0 /100WBC
same,PLATELET COUNT,[3],1181 x10E3/uL
same,ALANINE AMINOTRANSFERASE,[3],50.67 u/L
same,ALBUMIN,[3],4.2 G/DL
same,ALKALINE PHOSPHATASE,[3],327.67 u/L
same,ASPARTATE AMINOTRANSFERASE,[3],96.67 u/L
same,BLOOD UREA NITROGEN,[3],18.67 mg/dL
same,CARBON DIOXIDE,[3],24.67 mmol/L
same,CHLORIDE,[3],101 MEQ/L
same,CHOLESTEROL,[3],82 mg/dL
same,CREATININE,[3],0.23 mg/dL
same,GLUCOSE,[3],160.67 mg/dL
same,LACTATE DEHYDROGENASE,[3],448.33 u/L
same,LIPASE,[3],9.67 u/L
same,PHOSPHORUS,[3],12.83 mg/dL
same,SODIUM,[3],144.87 MEQ/L
same,TOTAL BILIRUBIN,[3],0.27 mg/dL
same,TOTAL PROTEIN,[3],5.9 G/DL
same,URIC ACID,[3],1.7 mg/dL
